Assay results as given in US9512114B2, “Substituted aminopyrimidine compounds and methods of use” (Calitor Sciences, LLC, priority 2013, dated 2016).

Tests used:
[1] = Compound stability in human liver microsomes; assay type: in vitro ADME; conditions: pH 7.4; for CLint scaled at 5 μM: liver microsomes, in vivo CLint extrapolated from human liver microsome incubation; for half-life at 5 μM: human liver microsomes 0.5 mg protein/mL, compound 5 μM, NADPH 1.0 mM, 37° C., read-out: Human T1/2
Protocol: (§1) The LC/MS/MS system used in the analysis consists of an Agilent 1200 Series vacuum degasser, binary pump, well-plate autosampler, thermostatted column compartment, the Agilent G6430 Triple Quadrupole Mass Spectrometer with an electrosprayionization (ESI) source. Quantitative analysis was carried out using MRM mode. The parameters for MRM transitions are in the Table A.
(§2) An Agilent XDB-C18, 2.1×30 mm, […] column was used for the analysis. 5 μL of the samples were injected. Analysis condition: The mobile phase was 0.1% formic acid in water (A) and 0.1% formic acid in methanol (B). The flow rate was 0.4 mL/min. And the gradient of Mobile phase was in the Table B.
(§3) Alternatively, an Agilent 6330 series LC/MS/MS spectrometer equipped with G1312A binary pumps, a G1367A autosampler and a G1314C UV detector were used in the analysis. An ESI source was used on the LC/MS/MS spectrometer. The analysis was done in positive ion mode as appropriate and the MRM transition for each analyte was optimized using standard solution. A Capcell MP-C18 100×4.6 mm I.D., […] column (Phenomenex, Torrance, Calif., USA) was used during the analysis. The mobile phase was 5 mM ammonia acetate, 0.1% MeOH in water (A): 5 mM ammonia acetate, 0.1% MeOH in acetonitrile (B) (70:30, v/v). The flow rate was 0.6 mL/min. Column was maintained at ambient temperature. 20 μL of the samples were injected.
(§4) Human or rat liver microsomes incubations were conducted in duplicate in polypropylene tubes. The typical incubation mixtures consisted of human or rat liver microsomes (0.5 mg protein/mL), compounds of interest (5 μM) and NADPH (1.0 mM) in a total volume of 200 μL potassium phosphate buffer (PBS, 100 mM, pH 7.4). Compounds were dissolved in DMSO and diluted with PBS such that the final concentration of DMSO was 0.05%. The enzymatic reactions were commenced with the addition of protein after a 3-min preincubation and incubated in a water bath open to the air at 37° C. Reactions were terminated at various time points (0, 5, 10, 15, 30, 60 min) by adding equal volume of ice-cold acetonitrile. The samples were stored at −80° C. until LC/MS/MS assays.
(§5) The concentrations of compounds in the incubation mixtures of human or rat liver microsomes were determined by a LC/MS/MS method. The ranges of the linearity in the concentration range were determined for each tested compounds.
(§6) A parallel incubation was performed using denatured microsomes as the negative control, and reactions were terminated at various time points (0, 15, 60 min) after incubation at 37° C.
(§7) Dextromethorphan (70 μM) was selected as the positive control, and reactions were terminated at various time points (0, 5, 10, 15, 30, 60 min) after incubation at 37° C. Both positive and negative control samples were included in each assay to ensure the integrity of the microsomal incubation system.
(§8) The concentrations of compounds in human or rat liver microsome incubations were plotted as a percentage of the relevant zero time point control for each reaction. The in vivo CLint were extrapolated (ref.: Naritomi, Y.; Terashita, S.; Kimura, S.; Suzuki, A.; Kagayama, A.; and Sugiyama, Y.; Prediction of human hepatic clearance from in vivo animal experiments and in vitro metabolic studies with liver microsomes from animals and humans. Drug Metab. Dispos., 2001, 29: 1316-1324).

[2] = Compound stability in rat liver microsomes; assay type: in vitro ADME; conditions: pH 7.4; for CLint scaled at 5 μM: liver microsomes, in vivo CLint extrapolated from rat liver microsome incubation; for half-life at 5 μM: rat liver microsomes 0.5 mg protein/mL, compound 5 μM, NADPH 1.0 mM, 37° C., read-out: Rat T1/2
Protocol: as §1, §2, §3, §4, §5, §6, §7, §8

[3] = Pharmacokinetic profiles in rats; assay type: in vivo, rat; conditions: for Cl/F / AUC(0-t) / half-life / Vd: iv dosing 1 mg/kg; for F: oral vs iv (iv 1 mg/kg; p.o. generally 5 or 10 mg/kg); for AUC(0-t) / half-life / Vd: rat, plasma; for Vd: read-out: Vss
Protocol: The compounds disclosed herein are assessed in pharmacokinetic studies in mice, rats, dogs or monkeys. The compounds are administered as a water solution, 2% HPMC+1% TWEEN®80 in water solution, 5% DMSO+5% solutol in saline, 4% MC suspension or capsule. For the intravenous administration, the animals are generally given at 1 or 2 mg/kg dose. For the oral (p.o.) dosing, mice and rats are generally given 5 or 10 mg/kg dose, and dogs and monkeys are generally given 10 mg/kg dose. The blood samples (0.3 mL) are drawn at 0.25, 0.5, 1.0, 2.0, 3.0, 4.0, 6.0, 8.0, 12 and 24 h time points or 0.083, 0.25, 0.5, 1.0, 2.0, 4.0, 6.0, 8.0 and 24 h time points and centrifuged at 3,000 or 4000 rpm for 2 to 10 min. The plasma solutions are collected, stored at −20° C. or −70° C. until analyzed by LC/MS/MS as described above.

PI3K (p110δ/p85α) (h) = PI3K (p110δ/p85α) (h) (Homo sapiens (Human), UniProt O00329); assay: PI3K (p110δ/p85α) (h) non-radioactive HTRF kinase assay; assay type: biochemical; conditions: performed at Millipore UK Ltd
Sequence of PI3K (p110δ/p85α) (h) (O00329 whole entry): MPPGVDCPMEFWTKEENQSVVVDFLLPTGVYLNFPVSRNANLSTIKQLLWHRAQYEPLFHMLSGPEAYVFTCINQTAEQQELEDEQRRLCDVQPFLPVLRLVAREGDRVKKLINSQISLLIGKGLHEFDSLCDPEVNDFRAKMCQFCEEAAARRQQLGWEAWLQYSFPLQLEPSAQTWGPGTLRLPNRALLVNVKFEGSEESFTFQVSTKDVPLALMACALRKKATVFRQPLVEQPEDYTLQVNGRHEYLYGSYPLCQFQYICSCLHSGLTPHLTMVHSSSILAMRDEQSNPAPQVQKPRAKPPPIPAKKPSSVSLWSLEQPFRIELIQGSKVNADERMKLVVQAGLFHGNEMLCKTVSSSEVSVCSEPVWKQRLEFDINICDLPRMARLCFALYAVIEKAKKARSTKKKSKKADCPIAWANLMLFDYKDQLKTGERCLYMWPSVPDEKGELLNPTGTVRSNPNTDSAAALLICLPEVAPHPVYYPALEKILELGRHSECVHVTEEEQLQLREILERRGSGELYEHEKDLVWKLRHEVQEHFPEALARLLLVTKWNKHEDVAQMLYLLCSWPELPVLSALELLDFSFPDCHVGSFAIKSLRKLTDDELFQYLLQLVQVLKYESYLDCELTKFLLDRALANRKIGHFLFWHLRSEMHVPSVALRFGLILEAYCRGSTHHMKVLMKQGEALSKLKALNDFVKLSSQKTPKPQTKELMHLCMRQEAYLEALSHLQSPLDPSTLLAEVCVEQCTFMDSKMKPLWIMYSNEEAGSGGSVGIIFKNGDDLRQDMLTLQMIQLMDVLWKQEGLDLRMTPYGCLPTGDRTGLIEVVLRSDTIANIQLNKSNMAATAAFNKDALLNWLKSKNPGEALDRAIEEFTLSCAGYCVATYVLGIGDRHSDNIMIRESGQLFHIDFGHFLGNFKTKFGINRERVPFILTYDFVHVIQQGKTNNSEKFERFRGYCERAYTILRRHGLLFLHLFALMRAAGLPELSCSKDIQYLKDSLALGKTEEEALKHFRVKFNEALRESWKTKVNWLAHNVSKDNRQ
Sequence of PI3K (p110δ/p85α) (h) (P27986 whole entry partner): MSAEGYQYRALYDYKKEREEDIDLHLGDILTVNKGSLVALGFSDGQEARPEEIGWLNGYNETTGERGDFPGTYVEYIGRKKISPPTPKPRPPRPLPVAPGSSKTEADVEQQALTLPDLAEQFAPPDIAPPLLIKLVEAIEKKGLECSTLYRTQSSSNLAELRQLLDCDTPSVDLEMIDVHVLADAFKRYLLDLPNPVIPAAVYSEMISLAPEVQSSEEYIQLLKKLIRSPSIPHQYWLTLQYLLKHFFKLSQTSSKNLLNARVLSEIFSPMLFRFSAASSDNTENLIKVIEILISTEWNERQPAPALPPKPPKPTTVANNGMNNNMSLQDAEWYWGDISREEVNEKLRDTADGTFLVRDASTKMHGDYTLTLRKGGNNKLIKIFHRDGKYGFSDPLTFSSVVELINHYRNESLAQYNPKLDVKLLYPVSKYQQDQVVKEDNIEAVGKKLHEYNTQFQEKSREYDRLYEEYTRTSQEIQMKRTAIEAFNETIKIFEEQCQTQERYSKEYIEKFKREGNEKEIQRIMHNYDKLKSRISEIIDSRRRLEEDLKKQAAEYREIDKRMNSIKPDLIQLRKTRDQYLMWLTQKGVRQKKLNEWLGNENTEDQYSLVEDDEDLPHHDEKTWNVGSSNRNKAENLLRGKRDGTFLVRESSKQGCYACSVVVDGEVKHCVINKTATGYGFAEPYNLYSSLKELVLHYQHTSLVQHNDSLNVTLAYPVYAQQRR
Protocol: (§9) The above assay procedure can be used to determine the IC50 for inhibition and/or the inhibition constant, Ki.
PI3K (p110δ/p85α) (h) [Non-Radioactive Assay]
(§10) PI3K (p110δ/p85α) (h) is incubated in assay buffer containing 10 μM phosphatidylinositol-4, 5-bisphosphate and MgATP (concentration as required). The reaction is initiated by the addition of the MgATP mix. After incubation for 30 minutes at room temperature, the reaction is stopped by the addition of stop solution containing EDTA and biotinylated phosphatidylinositol-3,4,5-trisphosphate. Finally, detection buffer is added, which contains europium-labelled anti-GST monoclonal antibody, GST-tagged GRP1 PH domain and streptavidin-allophycocyanin. The plate is then read in timeresolved fluorescence mode and the homogenous time-resolved fluorescence (HTRF) signal is determined according to the formula HTRF=10000×(Em665 nm/Em620 nm).
(§11) The kinase assays described herein were performed at Millipore UK Ltd, Dundee Technology Park, Dundee DD2 1SW, UK.

PI3K (p110α/p85α) (h) = PI3K (p110α/p85α) (h) (Homo sapiens (Human), UniProt P42336); assay: PI3K (p110α/p85α) (h) non-radioactive HTRF kinase assay; assay type: biochemical; conditions: performed at Millipore UK Ltd
Sequence of PI3K (p110α/p85α) (h) (P42336 whole entry): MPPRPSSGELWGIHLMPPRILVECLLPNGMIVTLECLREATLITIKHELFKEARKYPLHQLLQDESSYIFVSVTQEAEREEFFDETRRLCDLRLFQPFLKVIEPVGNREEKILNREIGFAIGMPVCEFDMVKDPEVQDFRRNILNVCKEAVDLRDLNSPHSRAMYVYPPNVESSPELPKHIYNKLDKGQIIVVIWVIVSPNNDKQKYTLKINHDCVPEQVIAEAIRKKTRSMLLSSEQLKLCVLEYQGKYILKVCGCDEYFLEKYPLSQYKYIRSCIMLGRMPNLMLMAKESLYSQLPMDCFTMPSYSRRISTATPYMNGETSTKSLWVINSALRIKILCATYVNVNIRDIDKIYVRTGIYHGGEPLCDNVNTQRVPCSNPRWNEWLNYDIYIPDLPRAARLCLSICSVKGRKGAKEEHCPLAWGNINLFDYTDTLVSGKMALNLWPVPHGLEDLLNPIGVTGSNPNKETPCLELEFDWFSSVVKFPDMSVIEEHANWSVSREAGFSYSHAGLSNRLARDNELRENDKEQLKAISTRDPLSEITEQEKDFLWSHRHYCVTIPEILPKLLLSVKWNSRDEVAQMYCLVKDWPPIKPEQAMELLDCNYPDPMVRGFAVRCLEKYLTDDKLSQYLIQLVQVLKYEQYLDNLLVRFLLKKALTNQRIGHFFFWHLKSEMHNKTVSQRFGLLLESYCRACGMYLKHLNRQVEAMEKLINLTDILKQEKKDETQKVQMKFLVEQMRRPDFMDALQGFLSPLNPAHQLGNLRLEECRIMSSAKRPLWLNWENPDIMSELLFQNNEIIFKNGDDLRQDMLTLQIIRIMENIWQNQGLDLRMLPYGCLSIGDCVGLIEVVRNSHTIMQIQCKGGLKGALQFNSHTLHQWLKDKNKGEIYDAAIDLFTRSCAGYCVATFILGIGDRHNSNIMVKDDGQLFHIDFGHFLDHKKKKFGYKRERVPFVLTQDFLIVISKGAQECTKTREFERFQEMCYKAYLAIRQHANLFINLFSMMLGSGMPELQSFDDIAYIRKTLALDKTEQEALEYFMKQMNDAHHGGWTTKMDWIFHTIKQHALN
Sequence of PI3K (p110α/p85α) (h) (P27986 whole entry partner): as the sequence (P27986 whole entry partner) above
Protocol: as §9
PI3K (p110α/p85α) (h) [Non-Radioactive Assay]
as §10, with “(p110α/p85α)” for “(p110δ/p85α)”, “phosphatidylinositol 4,5-bisphosphate” for “phosphatidylinositol-4, 5-bisphosphate”, “ATP solution.” for “MgATP mix.”, “streptavidin allophycocyanin.” for “streptavidin-allophycocyanin.”
as §11

PI3K (p120γ) (h) = PI3K (p120γ) (h) (Homo sapiens (Human), UniProt P48736); assay: PI3K (p120γ) (h) non-radioactive HTRF kinase assay; assay type: biochemical; conditions: performed at Millipore UK Ltd
Sequence of PI3K (p120γ) (h) (P48736 whole entry): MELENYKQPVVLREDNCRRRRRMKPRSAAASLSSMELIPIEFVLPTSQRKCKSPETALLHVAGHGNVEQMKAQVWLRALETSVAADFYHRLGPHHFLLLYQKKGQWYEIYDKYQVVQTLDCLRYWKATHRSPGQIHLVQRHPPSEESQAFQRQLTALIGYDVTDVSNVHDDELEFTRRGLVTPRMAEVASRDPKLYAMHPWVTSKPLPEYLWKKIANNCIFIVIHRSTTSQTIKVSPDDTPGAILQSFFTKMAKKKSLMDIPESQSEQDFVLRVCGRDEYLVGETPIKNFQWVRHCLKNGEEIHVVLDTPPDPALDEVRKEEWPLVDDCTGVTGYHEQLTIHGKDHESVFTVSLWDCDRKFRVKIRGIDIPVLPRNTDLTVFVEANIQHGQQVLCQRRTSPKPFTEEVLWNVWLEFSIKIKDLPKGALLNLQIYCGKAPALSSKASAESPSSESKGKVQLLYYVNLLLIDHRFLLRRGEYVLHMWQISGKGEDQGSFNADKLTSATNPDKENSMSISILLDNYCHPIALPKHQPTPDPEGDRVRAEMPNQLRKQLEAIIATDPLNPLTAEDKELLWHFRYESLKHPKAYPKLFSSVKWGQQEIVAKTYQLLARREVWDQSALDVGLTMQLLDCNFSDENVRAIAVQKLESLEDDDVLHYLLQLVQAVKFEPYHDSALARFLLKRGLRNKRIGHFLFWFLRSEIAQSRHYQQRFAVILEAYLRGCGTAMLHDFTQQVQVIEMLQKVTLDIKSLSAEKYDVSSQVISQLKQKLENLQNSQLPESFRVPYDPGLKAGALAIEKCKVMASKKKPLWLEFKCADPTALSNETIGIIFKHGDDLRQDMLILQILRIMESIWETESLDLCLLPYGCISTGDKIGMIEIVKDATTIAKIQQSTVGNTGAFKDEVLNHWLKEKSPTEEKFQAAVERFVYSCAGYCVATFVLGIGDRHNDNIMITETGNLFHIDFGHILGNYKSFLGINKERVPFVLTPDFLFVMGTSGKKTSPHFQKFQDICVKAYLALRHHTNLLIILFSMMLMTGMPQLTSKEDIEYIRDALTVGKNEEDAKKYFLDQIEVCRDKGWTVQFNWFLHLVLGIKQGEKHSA
Protocol: as §9
PI3K (p120γ) (h) [Non-Radioactive Assay]
as §10, with “(p120γ)” for “(p110δ/p85α)”
as §11

Row | CLint scaled at 5 μM [1] [mL/min/kg] | half-life at 5 μM [1] [min] | CLint scaled at 5 μM [2] [mL/min/kg] | half-life at 5 μM [2] [min] | Cl/F [3] [mL/min/kg] | F [3] [%] | AUC(0-t) [3] [ng·h/mL] | half-life [3] [min] | Vd [3] [L/kg] | IC50 (PI3K (p110δ/p85α) (h)) [nM] | IC50 (PI3K (p110α/p85α) (h)) [nM] | IC50 (PI3K (p120γ) (h)) [nM] | Compound
1 | 243 | 10.2 | 219 | 11.3 | 93 | 46.34 | 178 | 37.8 | 3.99 | 5 | – | – | CC[C@H](Nc1ncnc(N)c1-c1nc(C)no1)c1cc2cccc(F)c2c(=O)n1C1CC1 [Ex. 1, (S)-3-(1-((6-amino-5-(3-methyl-1,2,4-oxadiazol-5-yl)pyrimidin-4-yl)amino)propyl)-2-cyclopropyl-8-fluoroisoquinolin-1(2H)-one]
2 | 147 | 11.8 | 250 | 9.92 | 54.3 | 42.95 | 307 | 138 | 7.96 | 4 | – | – | CC[C@H](Nc1ncnc(N)c1-c1nc(C)no1)c1cc2cccc(Cl)c2c(=O)n1C1CC1 [Ex. 7, (S)-3-(1-((6-amino-5-(3-methyl-1,2,4-oxadiazol-5-yl)pyrimidin-4-yl)amino)propyl)-8-chloro-2-ccyclopropylisoquinolin-1(2H)-one]
3 | 545 | 3.19 | 317 | 7.83 | – | – | – | – | – | 13 | 1480 | 375 | Cc1nc(-c2c(N)ncnc2N[C@@H](C)c2cc3cccc(Cl)c3c(=O)n2C2CC2)no1 [Ex. 11, (S)-3-(1-((6-amino-5-(5-methyl-1,2,4-oxadiazol-3-yl)pyrimidin-4-yl)amino)ethyl)-8-chloro-2-cyclopropylisoquinolin-1(2H)-one]
4 | 114 | 15.3 | 190 | 13.1 | 120 | 12.28 | 139 | 45 | 5.46 | 3 | 307 | 15 | Cc1noc(-c2c(N)ncnc2N[C@@H](C)c2cc3cccc(Cl)c3c(=O)n2C2CC2)n1 [Ex. 24, (S)-3-(1-((6-amino-5-(3-methyl-1,2,4-oxadiazol-5-yl)pyrimidin-4-yl)amino)ethyl)-8-chloro-2-cyclopropylisoquinolin-1(2H)-one]
5 | 219 | 7.92 | 173 | 14.3 | 89.3 | 11.44 | 186 | 36.6 | 2.94 | 190 | – | – | C[C@H](Nc1ncnc(N)c1-c1ncn(C)n1)c1cc2cccc(Cl)c2c(=O)n1C1CC1 [Ex. 16, (S)-3-(1-((6-amino-5-(1-methyl-1H-1,2,4-triazol-3-yl)pyrimidin-4-yl)amino)ethyl)-8-chloro-2-cyclopropylisoquinolin-1(2H)-one]
6 | 138 | 12.6 | 259 | 9.58 | 99.8 | 16.23 | 167 | 79.2 | 6.07 | 3 | – | – | CCc1noc(-c2c(N)ncnc2N[C@@H](CC)c2cc3cccc(Cl)c3c(=O)n2C2CC2)n1 [Ex. 22, (S)-3-(1-((6-amino-5-(3-ethyl-1,2,4-oxadiazol-5-yl)pyrimidin-4-yl)amino)propyl)-8-chloro-2-cyclopropylisoquinolin-1(2H)-one]
